Experimental findings from patent publication US20030170722A1, “Methods and reagents for regulating apoptosis” (priority 2001, published 2003) are described below.

Assay type in all cases: cell-based
One experiment deals with Caspase-3. Put plainly: Caspase-3 activation by SDS-PAGE and immunoblot in Rat2puro / Rat2M11L cells. As to conditions: 5 μM staurosporine, 4 h. The method, then:
Measurement of Caspase-3 Activation. Rat2puro and Rat2-M11L cells (10^6) were incubated with 5 μM staurosporine for up to 4 h. Caspase-3 activation was detected by SDS-PAGE and immunoblot analysis as described (30) using an antibody directed against the large subunit of the active enzyme (provided by Dr. D. Nicholson, MerckFrosst Center for Therapeutic Research, Montreal, Quebec, Canada).
(In general: A western blot detects proteins with antibodies after separation by electrophoresis.)

Experiment [1] deals with Rat2 fibroblasts. Put plainly: TUNEL analysis of staurosporine-induced apoptosis in Rat2puro / Rat2M11L cells. The settings on record: 2 μM staurosporine, 5 h. The procedure: Ectopic Expression of M11L. Control pBabePuro and pBabe-PuroM11L vectors were transiently transfected into BOSC 23 cells and packaged into ecotropic virus particles as described (27). After infection of Rat2 fibroblasts, pooled clones of cells that had stably incorporated the respective proviruses were selected on the basis of ability to grow in the presence of 2.5 μg/ml puromycin, and designated Rat2puro and Rat2M11L. Expression of the M11L protein by Rat2M11L cells was verified by immunoblot analysis (data not shown). Transient expression of GFP chimeric proteins for flow cytometry was accomplished by transfecting HeLa cells with GFP plasmid constructs using the Lipofectin Plus reagent (GIBCO BRL) as described (28). Analysis was conducted 24 h after transfection.
Induction and Measurement of Apoptosis. Apoptosis was induced by addition of staurosporine (Sigma Chemical Co.) to the cell culture medium at a final concentration of 2 μM. Apoptotic cells were identified by measuring the characteristic elevation in levels of nicked DNA using the previously described terminal deoxynucleotidyl transferase-mediated dUTP-fluorescein nick end labeling (TUNEL) reaction (19, 29).

In a further experiment the test system is HeLa cells. Kind of experiment: Mitochondrial membrane potential by TMRE fluorescence in HeLa cells expressing GFP constructs. The settings on record: CCCP.
Experiment [2] has as its system Rat2 fibroblasts. The settings on record: control cells, CCCP 50 μM.
Description: Measurement of Mitochondrial Membrane Potential in Cells Expressing M11L Constructs. Rat2puro or Rat2M11L cells were cultured in 12-well plates (5×10^5 cells/well) and treated with 2 μM staurosporine for 4 h. As the staurosporine stock was prepared in DMSO, control cells were treated with an equivalent amount of DMSO alone. Thereafter, the cells were stained with the green fluorescent dye 3,3′dihexyloxacarbocyanine iodide (DiOC6; Molecular Probes). […] Cells were incubated with 0.5 nM DiOC6 at 37° C. for 10 min, harvested with trypsin, and then washed and resuspended in RPMI lacking phenol red (GIBCO BRL). […] CCCP was added to the cell culture medium at a final concentration of 50 μM during and after dye addition. Flow cytometric analysis was conducted using a Becton Dickinson FACSCalibur™ flow cytometer equipped with an argon ion laser with 15 mW of excitation at 488 nm. Data were acquired at 10,000 cells per sample, and the fluorescent signal due to excitation of DiOC6 at 488 nm was detected through the FL1 channel equipped with a 530 nm filter (30 nm band pass). Light scatter signals were acquired at linear gain, and fluorescence signals were acquired at logarithmic gain.

Description for HeLa cells: Measurement of Mitochondrial Membrane Potential in Cells Expressing M11L Constructs. […] Flow cytometric analysis was conducted using a Becton Dickinson FACSCalibur™ flow cytometer equipped with an argon ion laser with 15 mW of excitation at 488 nm. […] HeLa cells transiently expressing GFP plasmid constructs were treated with 2.5 μM staurosporine, and control samples were treated with DMSO alone. […] Flow cytometric analysis to detect green fluorescence due to GFP and orange fluorescence due to TMRE was conducted using a FACSCalibur™ instrument specified above. GFP fluorescence was collected after a 530/30-nm band pass filter, and TMRE fluorescence was acquired through a 585/42-nm band pass filter. Electronic fluorescence compensation was set to eliminate any spectral overlap of the emitted signals. Data were acquired at 10,000 cells per sample with fluorescence signals at logarithmic gain. The percentage of GFP-positive cells that were also TMRE-positive was then calculated for each gated cell population.

For `CN[C@@H]1C[C@H]2O[C@@](C)([C@@H]1OC)n1c3ccccc3c3c4c(c5c6ccccc6n2c5c31)C(=O)NC4` [staurosporine], in the experiment with Caspase-3, the “Caspase-3 activation (32 kD proenzyme reduced, p19 cleavage product)” value is recorded as “resulted in activation of Caspase-3”. In addition, in the experiment with Rat2 fibroblasts [1], the “levels of TUNEL-positive (apoptotic) cells” value is given as “steady increase in the levels of TUNEL-positive Rat2puro cells”.

In the case of “carbonyl cyanide mchlorophenyl hydrazone [CCCP]”, the “TMRE fluorescence (mitochondrial membrane potential)” value in the experiment on HeLa cells is “induced a marked loss of TMRE fluorescence”. Besides, the “DiOC6 fluorescence (mitochondrial membrane potential)” value in the experiment with Rat2 fibroblasts [2] is listed as “Fluorescence was diminished”.
